According to PMC9331314, “Synthesis and Antiviral Properties of Camphor-Derived Iminothiazolidine-4-Ones and 2,3-Dihydrothiazoles” (Molecules, 2022):
Read-outs that look alike come from different tables or passages of the source.

Tests used:
in vitro [1] = conditions: human
in vitro [2] = conditions: African green monkey
[3] = system: Marburg pseudovirus (GP MARV); assay: microbe, parasite or virus in culture; conditions: 24 h
[4] = system: vaccinia virus (strain Copenhagen); assay: microbe, parasite or virus in culture; conditions: Orthopoxvirus vaccinia, Vero, 96 h
[5] = system: vaccinia virus (strain Copenhagen)
[6] = system: Marburg pseudovirus (GP MARV)
VSV-GP-EboV = conditions: cited from earlier work
VV = conditions: cited from earlier work
H1N1 = conditions: cited from earlier work

SMILES	CC50 (in vitro [1])	CC50 (in vitro [2])	IC50 [3]	IC50 [4]	SI (CC50/IC50) [5]	SI (CC50/IC50) [6]	also measured
CC1(C)[C@H]2CC[C@]1(C)/C(=N/NC(=S)Nc1ccccc1)C2 [2′a, (E)-N-phenyl-2-((1S,4S)-1,7,7-trimethylbicyclo[2.2.1]heptan-2-ylidene)hydrazinecarbothioamide]	280 ± 38.6 µM	16 ± 2.8 µM	5.9 ± 2.1 µM	4.3 ± 1.8 µM	4		IC50 [5]: lower micromolar range; CC50 (Vero cells): quite toxic
CNC(=S)N/N=C1\C[C@@H]2CC[C@@]1(C)C2(C)C [2′d, (E)-N-methyl-2-((1S,4S)-1,7,7-trimethylbicyclo[2.2.1]heptan-2-ylidene)hydrazinecarbothioamide]	66.9 ± 18.2 µM	130 ± 14.2 µM	29.2 ± 4.2 µM	35 ± 5.8 µM	5	2	IC50 [5]: low; CC50 (Vero cells): least cytotoxicity
CC1(C)[C@@H]2CC[C@@]1(C)/C(=N/NC(=S)Nc1ccccc1)C2 [Compound 2a, (E)-N-phenyl-2-((1R,4R)-1,7,7-trimethylbicyclo[2.2.1]heptan-2-ylidene)hydrazinecarbothioamide]	700 ± 43.1 µM	24 ± 3.4 µM	398 ± 33.2 µM	6.7 ± 0.9 µM	4	2	IC50 [5]: lower micromolar range; CC50 (Vero cells): quite toxic
C=CCNC(=S)N/N=C1\C[C@H]2CC[C@]1(C)C2(C)C [Compound 2b, (E)-N-allyl-2-((1R,4R)-1,7,7-trimethylbicyclo[2.2.1]heptan-2-ylidene)hydrazinecarbothioamide]	128 ± 37.8 µM	200 ± 23.8 µM	24.5 ± 3.8 µM			5	IC50 [5]: low; CC50 (Vero cells): least cytotoxicity
CNC(=S)N/N=C1\C[C@H]2CC[C@]1(C)C2(C)C [Compound 2d, (E)-N-methyl-2-((1R,4R)-1,7,7-trimethylbicyclo[2.2.1]heptan-2-ylidene)hydrazinecarbothioamide]	62.8 ± 17.1 µM	150 ± 17.9 µM	28 ± 4.2 µM	97 ± 19.8 µM	2		IC50 [5]: low; CC50 (Vero cells): least cytotoxicity
CC12CCC(CC1=NN=C1SCC(=O)N1c1ccccc1)C2(C)C [Compound 3a, ((Z)-3-phenyl-2-((E)-((1R,4R)-1,7,7-trimethylbicyclo[2.2.1]heptan-2-ylidene)hydrazono)thiazolidin-4-one]	1260 ± 52.7 µM	290 ± 39.1 µM	237 ± 5.9 µM			5	CC50 (HEK293FT cells): least toxicity
C=CCN1C(=O)C(C)(C)S/C1=N/N=C1/C[C@H]2CC[C@]1(C)C2(C)C [Compound 4b, (Z)-3-allyl-5,5-dimethyl-2-((E)-((1R,4R)-1,7,7-trimethylbicyclo[2.2.1]heptan-2-ylidene)hydrazono)thiazolidin-4-one]	959.5 ± 6.8 µM		255 ± 45 µM			4	CC50 (HEK293FT cells): least toxicity
CN1C(=O)C(C)(C)S/C1=N/N=C1/C[C@H]2CC[C@]1(C)C2(C)C [Compound 4d, (Z)-3,5,5-trimethyl-2-((E)-((1R,4R)-1,7,7-trimethylbicyclo[2.2.1]heptan-2-ylidene)hydrazono)thiazolidin-4-one]	514 ± 34.1 µM	310 ± 38.7 µM	39 ± 3.3 µM	12.7 ± 1.4 µM	24	13	IC50 [5]: highest activity; CC50 (Vero cells): low toxicity
CC1(C)[C@@H]2CC[C@@]1(C)/C(=N/N=c1/scc(-c3ccc(Cl)cc3)n1-c1ccccc1)C2 [Compound 5a, (E)-4-(4-chlorophenyl)-3-phenyl-2-((E)-((1R,4R)-1,7,7-trimethylbicyclo[2.2.1]heptan-2-ylidene)hydrazono)-2,3-dihydrothiazole]	872 ± 52.8 µM	229 ± 24.7 µM	103 ± 6.9 µM			8	CC50 (HEK293FT cells): least toxicity
CCn1c(-c2ccc(Cl)cc2)cs/c1=N/N=C1\C[C@H]2CC[C@]1(C)C2(C)C [Compound 5c, (E)-4-(4-chlorophenyl)-3-ethyl-2-((E)-((1R,4R)-1,7,7-trimethylbicyclo[2.2.1]heptan-2-ylidene)hydrazono)-2,3-dihydrothiazole]	51.6 ± 15.5 µM	70 ± 8.9 µM	25.8 ± 5.2 µM	12 ± 1.5 µM	6	2	
Cn1c(-c2ccc(Cl)cc2)cs/c1=N/N=C1\C[C@H]2CC[C@]1(C)C2(C)C [Compound 5d, (E)-4-(4-chlorophenyl)-3-methyl-2-((E)-((1R,4R)-1,7,7-trimethylbicyclo[2.2.1]heptan-2-ylidene)hydrazono)-2,3-dihydrothiazole]	107 ± 5.3 µM	144 ± 18.7 µM	10.7 ± 2.7 µM	2.6 ± 0.2 µM		10	CC50 (Vero cells): least toxic
C=CCn1c(-c2ccc(C)cc2)cs/c1=N/N=C1\C[C@H]2CC[C@]1(C)C2(C)C [Compound 6b, (E)-3-allyl-4-p-tolyl-2-((E)-((1R,4R)-1,7,7-trimethylbicyclo[2.2.1]heptan-2-ylidene)hydrazono)-2,3-dihydrothiazole]	39.5 ± 4.8 µM	12 ± 2.1 µM	5.3 ± 2.6 µM	4 ± 0.6 µM	3	7	
Cc1ccc(-c2cs/c(=N/N=C3\C[C@H]4CC[C@]3(C)C4(C)C)n2C)cc1 [Compound 6d, (E)-3-methyl-4-p-tolyl-2-((E)-((1R,4R)-1,7,7-trimethylbicyclo[2.2.1]heptan-2-ylidene)hydrazono)-2,3-dihydrothiazole]	79.2 ± 8.5 µM	17 ± 3.1 µM	28.3 ± 8.5 µM	5.1 ± 0.7 µM	3	3	
CC1(C)[C@@H]2CC[C@@]1(C)/C(=N/N=c1/scc(-c3ccccc3)n1-c1ccccc1)C2 [Compound 8a, (E)-3,4-diphenyl-2-((E)-((1R,4R)-1,7,7-trimethylbicyclo[2.2.1]heptan-2-ylidene)hydrazono)-2,3-dihydrothiazole]	89.6 ± 19.9 µM	122 ± 14.7 µM	29.9 ± 5 µM	18 ± 1.9 µM	7	3	
C=CCn1c(-c2ccccc2)cs/c1=N/N=C1\C[C@H]2CC[C@]1(C)C2(C)C [Compound 8b, (E)-3-allyl-4-phenyl-2-((E)-((1R,4R)-1,7,7-trimethylbicyclo[2.2.1]heptan-2-ylidene)hydrazono)-2,3-dihydrothiazole]	< 41 µM	17 ± 2.9 µM	19.2 ± 2.7 µM	3 ± 0.4 µM	6	<2	
CCn1c(-c2ccccc2)cs/c1=N/N=C1\C[C@H]2CC[C@]1(C)C2(C)C [Compound 8c, (E)-3-ethyl-4-phenyl-2-((E)-((1R,4R)-1,7,7-trimethylbicyclo[2.2.1]heptan-2-ylidene)hydrazono)-2,3-dihydrothiazole]	< 42.4 µM	17 ± 3.3 µM	28.3 ± 2.8 µM	3 ± 0.5 µM	6	<2	
Cn1c(-c2ccccc2)cs/c1=N/N=C1\C[C@H]2CC[C@]1(C)C2(C)C [Compound 8d, (E)-3-methyl-4-phenyl-2-((E)-((1R,4R)-1,7,7-trimethylbicyclo[2.2.1]heptan-2-ylidene)hydrazono)-2,3-dihydrothiazole]	< 44.2 µM	14 ± 2.4 µM	26.5 ± 5.9 µM	1.5 ± 0.2 µM	9	<2	
CCN1CCN(CCC(=O)N[C@@H]2C[C@H]3CC[C@]2(C)C3(C)C)CC1 [IIIa]							IC50 (VSV-GP-EboV): 0.6 µM; SI (VSV-GP-EboV): 908
CC1(C)[C@@H]2CC[C@@]1(C)[C@H](NC(=O)CN1CCOCC1)C2 [IIIb]							IC50 (VSV-GP-EboV): 5.7 µM; SI (VSV-GP-EboV): 147; IC50 (VV): 12.5 µM; SI (VV): 40
CC1(C)[C@H]2CC[C@]1(C)[C@H](OC(=O)CN1CCOCC1)C2 [IIa]							IC50 (H1N1): 7.1 µM; SI (H1N1): 82; IC50 (VSV-GP-EboV): 24.9 µM; SI (VSV-GP-EboV): 13; IC50 (VV): 17.9 µM; SI (VV): 56
CN1CCN(CC(=O)O[C@@H]2C[C@@H]3CC[C@@]2(C)C3(C)C)CC1 [IIb]							IC50 (H1N1): 4.4 µM; SI (H1N1): 23; IC50 (VSV-GP-EboV): 6.8 µM; SI (VSV-GP-EboV): 46
CC1(C)[C@@H]2CC[C@@]1(CS(=O)(=O)N1CCOCC1)C(=O)C2 [IVa]							IC50 (VSV-GP-EboV): 0.9 µM; SI (VSV-GP-EboV): 921
CC1(C)[C@@H]2CC[C@@]1(CS(=O)(=O)n1cncn1)C(=O)C2 [IVb]							IC50 (VSV-GP-EboV): 1 µM; SI (VSV-GP-EboV): 1764
CC1CCN(CCC(=O)O[C@@H]2C[C@@H]3CC[C@@]2(C)C3(C)C)CC1 [Ia]							IC50 (VSV-GP-EboV): 0.3 µM; SI (VSV-GP-EboV): 956
CC1(C)[C@H]2CC[C@]1(C)[C@H](OC(=O)CCN1CCOCC1)C2 [Ib]							IC50 (H1N1): 12.2 µM; SI (H1N1): 45; IC50 (VV): 3.5 µM; SI (VV): 48
CN1CCN(CCC(=O)O[C@@H]2C[C@@H]3CC[C@@]2(C)C3(C)C)CC1 [Ic]							IC50 (H1N1): 1.9 µM; SI (H1N1): 215; IC50 (VSV-GP-EboV): 0.3 µM; SI (VSV-GP-EboV): 870
CC1(C)[C@@H]2CC[C@@]1(C)/C(=N/Nc1nc(-c3ccc(Cl)cc3)cs1)C2 [Va]							IC50 (VV): 2.7 µM; SI (VV): 24
CC1(C)[C@@H]2CC[C@@]1(C)/C(=N/Nc1nc(-c3ccc(Br)cc3)cs1)C2 [Vb]							IC50 (VV): 2.4 µM; SI (VV): 32
COc1ccc(-c2csc(N/N=C3\C[C@H]4CC[C@]3(C)C4(C)C)n2)cc1 [Vc]							IC50 (VV): 3.7 µM; SI (VV): 26
